Data on three compounds can be found in patent US10238710B2, “Peptide having anti-inflammatory, osteogenic and hair growth promoting activities, and use of same” (CAREGEN CO., LTD., priority 2014, dated 2019).

One experiment has as its system TNFR. Description: Receptor binding assay (TNFR), ELISA. Conditions: peptide coated 50 μg/25 μl, O.D. 450 nm, positive control TNF-α. (In general: In an ELISA, binding on a coated surface is turned into a signal by an enzyme label.)
Another experiment concerns IL-1β. Description: IL-1β ELISA in THP-1 cells treated with TNF-α. Format: cell-based, human. Conditions: 10 μg/ml pre-treatment 30 minutes, 50 ng/ml TNF-α, 24 hours. The protocol:
(§1) The human monocytes, THP-1 cells were seeded on a 24-well plate at a density of 2×10^6 cells/well. After incubation overnight, the cells were pre-treated with the samples at 10 μg/ml for 30 minutes, and treated with 50 ng/ml TNF-α, followed by incubation for 24 hours. The cell incubation medium was obtained, followed by centrifugation at 13,000 rpm for 10 minutes at 4° C., and then the supernatant was separated. ELISA was carried out using IL-1b and IL-8 ELISA kit (R&D system).

Another experiment deals with IL-8. Description: IL-8 ELISA in THP-1 cells treated with TNF-α. Type of experiment: cell-based, human. The note with it: 10 μg/ml pre-treatment 30 minutes, 50 ng/ml TNF-α, 24 hours. Here is the method: as §1
For the next experiment, the target named is T1, HGFR (Homo sapiens, UniProt P08581).
T1 construct: purchased R&D Systems
In words: Receptor binding assay (HGFR), ELISA. The note with it: peptide coated 50 μg/25 μl, O.D. 450 nm. The protocol:
(§2) On an ELISA plate, 50 μg/25 μl peptide and 25 μl of a coating buffer (20 mM sodium phosphate pH 9.6) were added and mixed, and then incubated at 4° C. overnight. After washing three times with PBST (300 μl), the blocking with 200 μl of a blocking buffer (3% BSA) was carried out at room temperature for 2 hours. After washing three times with PBST (300 μl), HGFR (R&D Systems) was added at 0.5 μg/1 ml per well, followed by incubation at room temperature for 2 hours. After washing three times with PBST (300 μl), anti-human IgG-HRP was diluted at 1:1,000, which was then added at 100 μl per well, followed by incubation at room temperature for 2 hours. After washing three times with PBST (300 μl), 100 μl of TMB solution was added, followed by color development. 50 μl of a stop solution (3 N H2SO4) was added to stop the reaction, and then the absorbance was read at O.D. 450 nm.

In a further experiment the test system is Phospho-PI3K. Description: Western blotting using osteoblasts (PI3K phosphorylation). Format: cell-based. The note with it: mouse osteoblast line, 50 μg/ml, 15 minutes. The protocol:
The cells were treated with the peptides at 50 μg/ml for 15 minutes (positive control: HGF 50 ng/ml). The cells were treated with the cell lysis buffer to obtain a lysate, followed by protein quantification, and then western blotting was performed with respect to Phospho-PI3K (P-PI3K) using anti-pPI3K antibody (Santa Cruz Biotechnology, USA).
(A western blot detects proteins with antibodies after separation by electrophoresis.)

For experiment [1], the system named is human hair follicle dermal papilla cells (HFDPC). In words: Cell proliferation assay (SRB), HFDPC. Type of experiment: cell-based. Conditions: 1, 10 and 50 μg/ml, 72 hours. Here is the method:
(§3) In order to observe the cell proliferation effect on human hair follicle dermal papilla cells, human hair follicle germinal matrix cells, and human umbilical vein endothelial cells, which are main hair cells, each type of cells were seeded on a 96-well plate at a density of 3×10^3 cells/well, followed by incubation under conditions of 37° C. and 5% CO2 for 24 hours. After the medium was exchanged with the same culture medium completely excluding serum, the cells were treated with the peptides at different concentrations (1 μg/ml, 10 μg/ml, and 50 μg/ml), followed by incubation under the same conditions for 72 hours. After the incubation supernatant was removed, the cells were immobilized using ethanol, and washed three times with phosphate buffer saline (PBS). The wash solution was removed, and the cells were stained through the treatment with colorimetric SRB solution. After the cells were sufficiently washed with 1% acetic acid, the cells were observed using a microscope to observe the state of living cells. The absorbance was read at UV light of 560 nm, thereby measuring the survival conditions of cells

Experiment [2] deals with human hair follicle germinal matrix cells (HFGMC). Description: Cell proliferation assay (SRB), HFGMC. Type of experiment: cell-based. The note with it: 1, 10 and 50 μg/ml, 72 hours. Here is the method: as §3
In experiment [3] the test system is human umbilical vein endothelial cells (HUVEC). Description: Cell proliferation assay (SRB), HUVEC. The note with it: 1, 10 and 50 μg/ml, 72 hours. Type of experiment: cell-based. Here is the method:
as §3

For another experiment, the system named is Phospho-ERK (pERK). In words: Western blotting of cell signaling material, ERK phosphorylation. Type of experiment: cell-based, human. Conditions: HFDPC, 1 and 10 μg/ml, 30 minutes and 60 minutes. The protocol:
(§4) In order to observe the changes in the phosphorylation of ERK and the expression of PI3K, which are main signaling materials involved in cell proliferation in the human hair follicle dermal papilla cells, the cells were treated with the peptides of the present invention for 30 minutes and 60 minutes, and then subjected to western blotting using specific antibodies, thereby observing the pERK and PI3K changes. The test was carried out using anti-pERK antibody (Santa Cruz Biotechnology, USA) and anti-pPI3K antibody (Santa Cruz Biotechnology, USA).
(§5) The cells were treated with the cell lysis buffer to obtain a lysate, followed by protein quantification, and then western blotting was performed with respect to Phospho-ERK (pERK), PI3K, and β-catenin.

In a further experiment the test system is PI3K. In words: Western blotting of cell signaling material, PI3K. Conditions: HFDPC, 1 and 10 μg/ml, 30 minutes and 60 minutes. Type of experiment: cell-based, human. Here is the method:
as §4, §5

Another experiment relates to β-catenin. In words: Western blotting of cell signaling material, β-catenin. Type of experiment: cell-based, human. Conditions: HFDPC, 1 and 10 μg/ml, 30 minutes and 60 minutes. The protocol: as §4, §5
The next experiment relates to IGF-1. Description: Western blotting of hair growth protein IGF-1. Type of experiment: cell-based, human. The note with it: HFDPC, 0.1-50 μg/ml, 24 hours. The protocol:
(§6) In order to observe the changes in the expression of IGF1, KGF, and Wnt3a, which are proteins involved in the development of hair roots in the human hair follicle dermal papilla cells, the cells were treated with the peptides of the present invention for 24 hours, and then subjected to western blotting using specific antibodies, thereby observing the changes in hair growth-related proteins.
(§7) The cells were stabilized by the incubation overnight, and then treated with the peptides at different concentrations (0.1-50 μg/ml) for 24 hours. The cells were treated with the cell lysis buffer to obtain a lysate, followed by protein quantification, and then western blotting was performed with respect to IGF-1, KGF, and Wnt3a.
(§8) The test was carried out using anti-IGF-1 antibody (Santa Cruz Biotechnology, USA), anti-KGF antibody (Santa Cruz Biotechnology, USA), and anti-Wnt3a antibody (Santa Cruz Biotechnology, USA).

In a further experiment the test system is KGF. In words: Western blotting of hair growth protein KGF. Type of experiment: cell-based, human. Conditions: HFDPC, 0.1-50 μg/ml, 24 hours. Here is the method: as §6, §7, §8
The subject of another experiment is Wnt3a. Description: Western blotting of hair growth protein Wnt3a. Format: cell-based, human. The note with it: HFDPC, 0.1-50 μg/ml, 24 hours. Here is the method: as §6, §7, §8
Another experiment deals with DKK-1. Description: Western blotting of DKK-1 with hair loss causing hormone DHT. Type of experiment: cell-based, human. Conditions: HFDPC, 48 hours. Here is the method: The cells were treated with DHT and the peptides for 48 hours, and then subjected to western blotting with respect to DKK-1 using specific antibodies, thereby observing the expression of DKK-1.
The human hair follicle dermal papilla cells were seeded on a 6-well plate at a density of 1×10^5 cells/well. The cells were stabilized by incubation overnight, and then treated with 5 μg/ml DHT (Sigma Aldrich) together with the peptides at different concentrations (1 μg/ml and 10 μg/ml) for 48 hours. The cells were treated with the cell lysis buffer to obtain a lysate, followed by protein quantification, and then western blotting was performed with respect to DKK-1 using anti-DKK-1 antibody (Santa Cruz Biotechnology, USA).

For a further experiment, the system named is Ha3-II and keratin 14. Description: RT-PCR of keratinocyte differentiation markers in HaCaT cells. Conditions: HaCaT, 0.1, 1 and 10 μg/ml, 24 hours. Type of experiment: cell-based, human. The protocol:
The cells were treated with the peptides at different concentrations (0.1 μg/ml, 1 μg/ml, and 10 μg/ml), and then incubated in an incubator at 37° C. for 24 hours. […] RT-PCR was carried out using primers of respective markers (Ha3-II and keratin 14) and PCR pre-mix (Intron) to measure the changes in the expression of the markers.
Target-specific primer sequences used in PCR for keratinocyte differentiation markers were as follows: Ha3-II forward primer sequence, 5′-[…]-3′ and Ha3-II reverse primer, 5′-[…]-3′ (annealing temperature, 60° C.); Keratin14 forward primer sequence, 5′-[…]-3′ and Keratin14 reverse primer, 5′-[…]-3′ (annealing temperature, 60° C.)

The next experiment concerns the target T2, BMPR-IB (Homo sapiens, UniProt O00238).
T2 construct: purchased R&D Systems
In words: Receptor binding assay (BMPR), ELISA. The note with it: peptide coated 50 μg/25 μl, O.D. 450 nm, positive control BMP4. Here is the method:
as §2, with “In” for “On”, “BMPR-IB” for “HGFR”, “determined” for “read”

The next experiment relates to Phospho-smad1/5/8. In words: Western blotting using osteoblasts (Smad1/5/8 phosphorylation). Conditions: mouse osteoblast line, 50 μg/ml, 15 minutes and 30 minutes. Format: cell-based. The protocol: The cells incubated overnight were incubated in a serum-free medium for 24 hours, and then treated with the peptide at 50 μg/ml for 15 minutes and 30 minutes (positive control; BMP4 50 ng/ml). The cells were treated with the cell lysis buffer to obtain a lysate, followed by protein quantification, and then western blotting was performed with respect to Phospho-smad1/5/8 (P-smad1/5/8) using anti-p-smad1/5/8 antibody (Santa Cruz Biotechnology, USA).

T1 sequence (P08581 25-1390): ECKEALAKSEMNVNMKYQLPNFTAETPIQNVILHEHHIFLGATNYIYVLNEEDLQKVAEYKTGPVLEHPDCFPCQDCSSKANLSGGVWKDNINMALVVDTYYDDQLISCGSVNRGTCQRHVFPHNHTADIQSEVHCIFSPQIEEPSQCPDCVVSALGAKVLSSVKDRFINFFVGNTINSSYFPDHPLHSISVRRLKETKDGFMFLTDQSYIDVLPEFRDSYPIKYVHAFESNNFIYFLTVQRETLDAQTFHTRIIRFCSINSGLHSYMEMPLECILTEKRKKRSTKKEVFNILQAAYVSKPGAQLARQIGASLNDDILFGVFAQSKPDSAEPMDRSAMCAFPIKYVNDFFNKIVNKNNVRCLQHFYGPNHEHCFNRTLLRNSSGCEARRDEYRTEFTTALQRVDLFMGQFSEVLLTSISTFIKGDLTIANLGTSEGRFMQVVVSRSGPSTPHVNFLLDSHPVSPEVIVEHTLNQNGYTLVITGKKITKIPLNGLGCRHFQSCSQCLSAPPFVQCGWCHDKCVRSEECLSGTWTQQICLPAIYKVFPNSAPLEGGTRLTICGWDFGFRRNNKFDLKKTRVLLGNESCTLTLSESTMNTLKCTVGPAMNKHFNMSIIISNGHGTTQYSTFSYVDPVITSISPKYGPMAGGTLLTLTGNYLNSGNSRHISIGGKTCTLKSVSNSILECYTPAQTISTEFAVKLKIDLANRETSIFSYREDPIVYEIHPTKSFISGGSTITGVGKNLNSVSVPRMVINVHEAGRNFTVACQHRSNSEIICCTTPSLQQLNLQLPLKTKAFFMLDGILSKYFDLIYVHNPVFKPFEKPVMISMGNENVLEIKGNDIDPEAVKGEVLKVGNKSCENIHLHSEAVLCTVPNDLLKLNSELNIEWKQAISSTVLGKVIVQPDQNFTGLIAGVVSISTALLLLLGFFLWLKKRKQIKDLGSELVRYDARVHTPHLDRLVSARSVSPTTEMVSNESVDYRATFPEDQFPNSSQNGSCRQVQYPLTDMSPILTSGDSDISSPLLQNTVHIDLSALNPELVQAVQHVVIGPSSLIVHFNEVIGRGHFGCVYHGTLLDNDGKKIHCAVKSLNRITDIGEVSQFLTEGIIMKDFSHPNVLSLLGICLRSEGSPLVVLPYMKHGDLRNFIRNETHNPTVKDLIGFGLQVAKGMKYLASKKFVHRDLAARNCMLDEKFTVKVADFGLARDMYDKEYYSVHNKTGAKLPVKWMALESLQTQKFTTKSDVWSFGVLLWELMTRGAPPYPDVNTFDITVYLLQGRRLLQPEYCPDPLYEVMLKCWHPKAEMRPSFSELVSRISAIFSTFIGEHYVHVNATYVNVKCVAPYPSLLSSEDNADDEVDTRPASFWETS
T2 sequence (O00238 14-502): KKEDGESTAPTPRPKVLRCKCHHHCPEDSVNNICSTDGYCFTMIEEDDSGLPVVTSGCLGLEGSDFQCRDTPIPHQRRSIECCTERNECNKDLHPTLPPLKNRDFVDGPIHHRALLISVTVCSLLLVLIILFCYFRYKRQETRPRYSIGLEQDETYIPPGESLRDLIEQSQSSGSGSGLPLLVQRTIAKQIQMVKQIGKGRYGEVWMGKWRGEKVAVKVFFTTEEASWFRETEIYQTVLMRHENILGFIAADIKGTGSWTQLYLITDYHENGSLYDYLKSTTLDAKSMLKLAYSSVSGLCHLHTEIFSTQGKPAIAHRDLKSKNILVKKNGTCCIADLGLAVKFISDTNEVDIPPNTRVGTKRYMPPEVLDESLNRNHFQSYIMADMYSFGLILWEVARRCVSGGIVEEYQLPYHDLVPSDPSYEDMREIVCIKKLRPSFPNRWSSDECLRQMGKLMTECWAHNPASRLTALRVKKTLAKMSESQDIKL

With “NH2-Ala-Cys-Asp-Gly-Arg-Thr-Gln-Ala-Leu-Cys-COOH (H-ACDGRTQALC-OH; cysteine pairing not given here) [SEQ ID NO: 3]”, the “binding affinity to TNFR” value with TNFR was “high binding affinity”. The “expression of IL-1β increased by TNF-α treatment” value in the experiment on IL-1β was “inhibited”. Also, the “expression of IL-8 increased by TNF-α treatment” value in the experiment with IL-8 is listed as “inhibited”. Further, the “binding affinity on HGFR” value in the experiment with HGFR is on record as “high binding affinity”. In addition, the “phosphorylation of PI3K by HGFR signal stimulation” value with Phospho-PI3K is recorded as “increased”. Besides, the “cell proliferation, HFDPC” value in experiment [1] is “increased in a concentration-dependent manner”. Further, the “cell proliferation, HFGMC” value in experiment [2] is “increased in a concentration-dependent manner”. In experiment [3], the “cell proliferation, HUVEC” value is listed as “increased in a concentration-dependent manner”. Further, the “phosphorylation of ERK” value in the experiment on Phospho-ERK (pERK) is listed as “increased”. In addition, in the experiment on PI3K, the “level of PI3K” value is listed as “increased”. The “expression of β-catenin” value in the experiment with β-catenin was “increased”. In addition, the “expression of IGF-1” value in the experiment on IGF-1 is on record as “increased”. Further, the “expression of KGF” value in the experiment on KGF is “increased”. Further, the “expression of Wnt3a” value in the experiment on Wnt3a is recorded as “increased”. Besides, the “expression of DKK-1 increased by DHT” value in the experiment on DKK-1 (5 μg/ml DHT together with peptide 1 and 10 μg/ml) is “reduced”. Further, in the experiment with Ha3-II and keratin 14, the “mRNA expression levels of differentiation markers Ha3-II and keratin 14” value is given as “keratinocyte differentiation promoting effect”.
As to `C[C@]12CCC(=O)C[C@@H]1CC[C@@H]1[C@@H]2CC[C@]2(C)[C@@H](O)CC[C@@H]12` [DHT, dihydrotestosterone, reference compound], in the experiment with DKK-1 (treatment with DHT 5 μg/ml alone), the “expression of DKK-1” value was “increased”.
Turning to “NH2-Ala-Cys-Phe-Thr-Arg-Thr-Ser-His-Ala-Cys-COOH (H-ACFTRTSHAC-OH; cysteine pairing not given here) [SEQ ID NO: 2]”, the “binding affinity to TNFR” value with TNFR is “high binding affinity”. Also, in the experiment on IL-1β, the “expression of IL-1β increased by TNF-α treatment” value was “inhibited”. For the same compound, in the experiment with IL-8, the “expression of IL-8 increased by TNF-α treatment” value was “inhibited”. In the experiment with BMPR-IB, the “binding affinity on BMPR” value is “high binding affinity”. In addition, in the experiment on Phospho-smad1/5/8, the “phosphorylation of Smad1/5/8 by BMPR signal stimulation” value is on record as “increased”.
